# Assay results taken from patent publication US9242943B2, “1,4 oxazines as BACE1 and/or BACE2 inhibitors” (SIENA BIOTECH S.P.A., priority 2011, dated 2016).
# Assays:
# BACE1 = BACE1 (Homo sapiens (Human), UniProt P56817); assay: Cellular Aβ-lowering assay (Aβ40 ELISA, HEK293 cells expressing human APP695); type: cell-based; conditions: HEK293 cells stably transfected with human APP695; 18-20 hrs incubation; Aβ40 in supernatant; read-out: BACE1 cell act. Aβ40 IC50
# Method: Cellular Aβ-Lowering Assay:
# Human HEK293 cells which are stably transfected with a vector expressing a cDNA of the human APP wt gene (APP695) were used to assess the potency of the compounds in a cellular assay. The cells were seeded in 96-well microtiter plates in cell culture medium (Iscove, plus 10% (v/v) fetal bovine serum, glutamine, penicillin/streptomycin) to about 80% confluence and the compounds were added at a 10× concentration in 1/10 volume of medium without FCS containing 8% DMSO (final concentration of DMSO was kept at 0.8% v/v). After 18-20 hrs incubation at 37° C. and 5% CO2 in a humidified incubator the culture supernatant was harvested for the determination of […] concentrations. 96well ELISA plates (e.g., Nunc MaxiSorb) were coated with monoclonal antibody which specifically recognize the C-terminal end of […] (Brockhaus et al., NeuroReport 9, 1481-1486; 1998). After blocking of non-specific binding sites with e.g. 1% BSA and washing, the culture supernatants were added in suitable dilutions together with a horseradish peroxidase-coupled Aβ detection antibody (e.g., antibody 4G8, Senetek, Maryland Heights, Mo.) and incubated for 5 to 7 hrs. Subsequently the wells of the microtiter plate were washed extensively with Tris-buffered saline containing 0.05% Tween 20 and the assay was developed with tetramethylbenzidine/H2O2 in citric acid buffer. After stopping the reaction with one volume 1 N H2SO4 the reaction was measured in an ELISA reader at 450 nm wavelength. The concentrations of Aβ in the culture supernatants were calculated from a standard curve obtained with known amounts of pure Aβ peptide.
# BACE2 = BACE2 (Rattus norvegicus (Rat), UniProt Q6IE75); assay: Assay for BACE inhibition by measuring cellular TMEM27 cleavage (INS-TMEM27 cells, ELISA); type: cell-based; conditions: INS-TMEM27 (INS1e-derived) cells; shed TMEM27 in supernatant; read-out: BACE2 cell act. IC50
# Description: Assay for BACE Inhibition by Measuring Cellular TMEM27 Cleavage:
# The assay uses the principle of inhibition of human TMEM27 cleavage by endogenous cellular BACE2 in the Ins1e rat cell line and shedding from the cell surface into the culture medium, followed by detection in an ELISA assay. Inhibition of BACE2 prevents the cleavage and shedding in a dose-dependent manner
# The stable cell line “INS-TMEM27” represents an INS1e-derived cell line with inducible expression (using the TetOn system) of full-length hTMEM27 in a doxycycline-dependent manner. The cells are cultured throughout the experiment in RPMI1640 +Glutamax (Invitrogen) Penicillin/Streptomycin, 10% Fetal bovine serum, […], […], 100 micrograms/ml G418 and 100 microgram/ml hygromycin and are grown inadherent culture at 37° C. in a standard CO2 cell culture incubator.
# INS-TMEM27 cells are seeded in 96-well plates. After 2 days in culture, BACE2 inhibitor is added in a range of concentrations as required by the assay and after a further two hours, doxycycline is added to a final concentration of 500 ng/ml. The cells are incubated for a further 46 hours and the supernatant harvested for detection of shed TMEM27.
# An ELISA assay (using a pair of mouse anti-human-TMEM27 antibodies, raised against the extracellular domain of TMEM27) is used for detection of TMEM27 in the culture medium. An EC50 for BACE2 inhibition is calculated using the ELISA readout for each inhibitor concentration with standard curve-fitting software such as XLFit for the Excel spreadsheet program.
# Sequence of BACE1 (P56817 46-501): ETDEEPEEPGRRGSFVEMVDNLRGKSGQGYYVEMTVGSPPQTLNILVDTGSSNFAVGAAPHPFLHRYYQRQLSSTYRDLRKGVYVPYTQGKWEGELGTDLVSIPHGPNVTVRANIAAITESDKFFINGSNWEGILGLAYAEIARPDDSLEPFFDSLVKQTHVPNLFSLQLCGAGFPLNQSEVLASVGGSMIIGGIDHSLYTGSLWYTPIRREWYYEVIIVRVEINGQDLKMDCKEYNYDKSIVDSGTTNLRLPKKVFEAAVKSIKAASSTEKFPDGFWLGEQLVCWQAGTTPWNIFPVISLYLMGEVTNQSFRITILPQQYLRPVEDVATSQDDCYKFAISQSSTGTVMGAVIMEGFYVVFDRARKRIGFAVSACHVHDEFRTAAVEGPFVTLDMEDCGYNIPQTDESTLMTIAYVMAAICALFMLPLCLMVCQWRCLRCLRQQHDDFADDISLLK
# Sequence of BACE2 (Q6IE75 63-514): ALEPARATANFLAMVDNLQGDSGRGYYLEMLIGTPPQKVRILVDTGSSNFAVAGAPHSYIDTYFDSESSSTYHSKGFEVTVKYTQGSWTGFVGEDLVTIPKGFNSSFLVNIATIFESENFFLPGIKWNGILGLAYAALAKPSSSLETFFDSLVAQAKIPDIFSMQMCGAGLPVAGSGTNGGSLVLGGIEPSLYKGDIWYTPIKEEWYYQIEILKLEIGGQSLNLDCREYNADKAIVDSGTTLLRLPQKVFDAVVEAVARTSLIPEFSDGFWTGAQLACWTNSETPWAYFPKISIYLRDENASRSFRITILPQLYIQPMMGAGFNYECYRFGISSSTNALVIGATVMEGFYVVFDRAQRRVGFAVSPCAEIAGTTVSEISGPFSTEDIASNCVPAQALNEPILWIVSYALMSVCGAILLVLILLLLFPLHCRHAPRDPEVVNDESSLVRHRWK
Molecule,IC50 (BACE1) [nM],IC50 (BACE2) [nM]
"CC1(c2cccc(NCc3ccc(Cl)cc3)c2)COCC(N)=N1 (centres unmarked) [Example 2, 5-[3-(4-Chloro-benzylamino)-phenyl]-5-methyl-5,6-dihydro-2H-[1,4]oxazin-3-ylamine]",450,–
"CCCCNc1ccc(F)c([C@]2(C)COCC(N)=N2)c1 [Example 5, (R)-5-(5-Butylamino-2-fluoro-phenyl)-5-methyl-5,6-dihydro-2H-[1,4]oxazin-3-ylamine]",340,–
"CC(C)CCNc1ccc(F)c([C@]2(C)COCC(N)=N2)c1 [Example 6, (R)-5-(2-fluoro-5-(isopentylamino)phenyl)-5-methyl-5,6-dihydro-2H-1,4-oxazin-3-amine]",1360,605
"CC(C)C(C)Nc1ccc(F)c([C@]2(C)COCC(N)=N2)c1 (stereo partly drawn) [Example 8, (5R)-5-(2-fluoro-5-(3-methylbutan-2-ylamino)phenyl)-5-methyl-5,6-dihydro-2H-1,4-oxazin-3-amine]",2190,–
"C[C@@]1(c2cc(NCC(F)(F)F)ccc2F)COCC(N)=N1 [Example 9, (R)-5-(2-fluoro-5-(2,2,2-trifluoroethylamino)phenyl)-5-methyl-5,6-dihydro-2H-1,4-oxazin-3-amine]",350,–
"C[C@@]1(c2cc(NCC(F)F)ccc2F)COCC(N)=N1 [Example 10, (R)-5-[5-(2,2-Difluoro-ethylamino)-2-fluoro-phenyl]-5-methyl-5,6-dihydro-2H-[1,4]oxazin-3-ylamine]",410,–
"C[C@@]1(c2cc(NCCC(F)(F)F)ccc2F)COCC(N)=N1 [Example 12, (R)-5-(2-fluoro-5-(3,3,3-trifluoropropylamino)phenyl)-5-methyl-5,6-dihydro-2H-1,4-oxazin-3-amine]",1090,2900
"CSCCCNc1ccc(F)c([C@]2(C)COCC(N)=N2)c1 [Example 13, (R)-5-(2-fluoro-5-(3-(methylthio)propylamino)phenyl)-5-methyl-5,6-dihydro-2H-1,4-oxazin-3-amine]",310,–
"C[C@@]1(c2cc(NC3CCC3)ccc2F)COCC(N)=N1 [Example 14, (R)-5-(5-Cyclobutylamino-2-fluoro-phenyl)-5-methyl-5,6-dihydro-2H-[1,4]oxazin-3-ylamine]",260,1170
"C[C@@]1(c2cc(NC3CCCC3)ccc2F)COCC(N)=N1 [Example 15, (R)-5-(5-(cyclopentylamino)-2-fluorophenyl)-5-methyl-5,6-dihydro-2H-1,4-oxazin-3-amine]",120,170
"C[C@@]1(c2cc(NC3CCOC3)ccc2F)COCC(N)=N1 (stereo partly drawn) [Example 18, (R)-5-[2-Fluoro-5-(tetrahydro-furan-3-ylamino)-phenyl]-5-methyl-5,6-dihydro-2H-[1,4]oxazin-3-ylamine]",320,3390
"C[C@@]1(c2cc(N[C@H]3CCC[C@@H]3O)ccc2F)COCC(N)=N1 [Example 19, (1S,2S)-2-(3-((R)-5-amino-3-methyl-3,6-dihydro-2H-1,4-oxazin-3-yl)-4-fluorophenylamino)cyclopentanol]",1210,3420
"C[C@@]1(c2cc(N[C@H]3CCC[C@H]3O)ccc2F)COCC(N)=N1 [Example 20, (1R,2S)-2-(3-((R)-5-amino-3-methyl-3,6-dihydro-2H-1,4-oxazin-3-yl)-4-fluorophenylamino)cyclopentanol]",610,2270
"C[C@@]1(c2cc(NCC3CC3)ccc2F)COCC(N)=N1 [Example 21, (R)-5-(5-(cyclopropylmethylamino)-2-fluorophenyl)-5-methyl-5,6-dihydro-2H-1,4-oxazin-3-amine]",130,279
"C[C@@]1(c2cc(NC[C@H]3CCCO3)ccc2F)COCC(N)=N1 [Example 22, (R)-5-(2-fluoro-5-(((R)-tetrahydrofuran-2-yl)methylamino)phenyl)-5-methyl-5,6-dihydro-2H-1,4-oxazin-3-amine]",1110,2430
"CC(C)C(Nc1ccc(F)c([C@]2(C)COCC(N)=N2)c1)c1ccc(Cl)cn1 (stereo partly drawn) [Example 23, (R)-5-{5-[1-(5-Chloro-pyridin-2-yl)-2-methyl-propylamino]-2-fluoro-phenyl}-5-methyl-5,6-dihydro-2H-[1,4]oxazin-3-ylamine]",3710,1660
"CC1(c2cccc(Nc3cccc4cc(Cl)cnc34)c2)COCC(N)=N1 (centres unmarked) [Example 24, [3-(5-Amino-3-methyl-3,6-dihydro-2H-[1,4]oxazin-3-yl)-phenyl]-(3-chloro-quinolin-8-yl)-amine]",250,18
"C[C@@]1(c2cc(Nc3cccc4cc(Cl)cnc34)ccc2F)COCC(N)=N1 [Example 26, [3-((R)-5-Amino-3-methyl-3,6-dihydro-2H-[1,4]oxazin-3-yl)-4-fluoro-phenyl]-(3-chloro-quinolin-8-yl)-amine]",160,77
"C[C@@]1(c2cc(Nc3cc(F)cc4cc(Cl)cnc34)ccc2F)COCC(N)=N1 [Example 28, [3-((R)-5-Amino-3-methyl-3,6-dihydro-2H-[1,4]oxazin-3-yl)-4-fluoro-phenyl]-(3-chloro-6-fluoro-quinolin-8-yl)-amine]",44,–
"C[C@@]1(c2cc(Nc3cccc4cc(OCCF)cnc34)ccc2F)COCC(N)=N1 [Example 30, [3-((R)-5-Amino-3-methyl-3,6-dihydro-2H-[1,4]oxazin-3-yl)-4-fluoro-phenyl]-[3-(2-fluoro-ethoxy)-quinolin-8-yl]-amine]",4770,–
"C[C@@]1(c2cc(Nc3cc(F)cc4cc(OCC5CC5)cnc34)ccc2F)COCC(N)=N1 [Example 31, [3-((R)-5-Amino-3-methyl-3,6-dihydro-2H-[1,4]oxazin-3-yl)-4-fluoro-phenyl]-(3-cyclopropylmethoxy-6-fluoro-quinolin-8-yl)-amine]",6900,–
"C[C@@]1(c2cc(Nc3cccc4cc(OCC(F)(F)F)cnc34)ccc2F)COCC(N)=N1 [Example 32, [3-((R)-5-Amino-3-methyl-3,6-dihydro-2H-[1,4]oxazin-3-yl)-4-fluoro-phenyl]-[3-(2,2,2-trifluoro-ethoxy)-quinolin-8-yl]-amine]",2360,–
"COc1cnc2c(Nc3cccc(C4(C)COCC(N)=N4)c3)cccc2c1 (centres unmarked) [Example 37, [3-(5-Amino-3-methyl-3,6-dihydro-2H-[1,4]oxazin-3-yl)-phenyl]-(3-methoxy-quinolin-8-yl)-amine]",–,120
"CC1(c2cccc(NC3CCc4cc(Cl)ccc43)c2)COCC(N)=N1 (centres unmarked) [Example 39, 5-[3-(5-Chloro-indan-1-ylamino)-phenyl]-5-methyl-5,6-dihydro-2H-[1,4]oxazin-3-ylamine]",180,–
"C[C@@]1(c2cc(Nc3ccccc3OCC(F)(F)F)ccc2F)COCC(N)=N1 [Example 42, (R)-5-{2-Fluoro-5-[2-(2,2,2-trifluoro-ethoxy)-phenylamino]-phenyl}-5-methyl-5,6-dihydro-2H-[1,4]oxazin-3-ylamine]",5200,–
"CC1(c2cccc(Nc3ccccc3OC(F)F)c2)COCC(N)=N1 (centres unmarked) [Example 44, 5-[3-(2-Difluoromethoxy-phenylamino)-phenyl]-5-methyl-5,6-dihydro-2H-[1,4]oxazin-3-ylamine]",890,–
"C[C@@]1(c2cc(NCc3nn(C(F)F)cc3Cl)ccc2F)COCC(N)=N1 [Example 45, (R)-5-{5-[(4-Chloro-1-difluoromethyl-1H-pyrazol-3-ylmethyl)-amino]-2-fluoro-phenyl}-5-methyl-5,6-dihydro-2H-[1,4]oxazin-3-ylamine]",17,–
"CC1(c2cccc(Nc3cccc4oc(C5CC5)nc34)c2)COCC(N)=N1 (centres unmarked) [Example 46, [3-(5-Amino-3-methyl-3,6-dihydro-2H-[1,4]oxazin-3-yl)-phenyl]-(2-cyclopropyl-benzooxazol-4-yl)-amine]",–,300
"(R)-5-{2-Fluoro-5-[2-(2-fluoro-ethoxy)-phenylamino]-phenyl}-5-methyl-5,6-dihydro-2H-[1,4]oxazin-3-ylamine [Example 43]",3200,–
